The record followed here is patent US20060063759A1, “Tricyclic steroid hormone nuclear receptor modulators” (priority 2002, published 2006).

Test [1] deals with T1, human MR (Homo sapiens, UniProt P08235).
T1 construct: The full length human MR gene is cloned from a human kidney or human brain cDNA library; His tag from the pAcHLT vector (own knowledge); made in house; host or cells: Sf9 insect cells (baculovirus, pAcHLT transfer vector)
T1 sequence (P08235 1-984): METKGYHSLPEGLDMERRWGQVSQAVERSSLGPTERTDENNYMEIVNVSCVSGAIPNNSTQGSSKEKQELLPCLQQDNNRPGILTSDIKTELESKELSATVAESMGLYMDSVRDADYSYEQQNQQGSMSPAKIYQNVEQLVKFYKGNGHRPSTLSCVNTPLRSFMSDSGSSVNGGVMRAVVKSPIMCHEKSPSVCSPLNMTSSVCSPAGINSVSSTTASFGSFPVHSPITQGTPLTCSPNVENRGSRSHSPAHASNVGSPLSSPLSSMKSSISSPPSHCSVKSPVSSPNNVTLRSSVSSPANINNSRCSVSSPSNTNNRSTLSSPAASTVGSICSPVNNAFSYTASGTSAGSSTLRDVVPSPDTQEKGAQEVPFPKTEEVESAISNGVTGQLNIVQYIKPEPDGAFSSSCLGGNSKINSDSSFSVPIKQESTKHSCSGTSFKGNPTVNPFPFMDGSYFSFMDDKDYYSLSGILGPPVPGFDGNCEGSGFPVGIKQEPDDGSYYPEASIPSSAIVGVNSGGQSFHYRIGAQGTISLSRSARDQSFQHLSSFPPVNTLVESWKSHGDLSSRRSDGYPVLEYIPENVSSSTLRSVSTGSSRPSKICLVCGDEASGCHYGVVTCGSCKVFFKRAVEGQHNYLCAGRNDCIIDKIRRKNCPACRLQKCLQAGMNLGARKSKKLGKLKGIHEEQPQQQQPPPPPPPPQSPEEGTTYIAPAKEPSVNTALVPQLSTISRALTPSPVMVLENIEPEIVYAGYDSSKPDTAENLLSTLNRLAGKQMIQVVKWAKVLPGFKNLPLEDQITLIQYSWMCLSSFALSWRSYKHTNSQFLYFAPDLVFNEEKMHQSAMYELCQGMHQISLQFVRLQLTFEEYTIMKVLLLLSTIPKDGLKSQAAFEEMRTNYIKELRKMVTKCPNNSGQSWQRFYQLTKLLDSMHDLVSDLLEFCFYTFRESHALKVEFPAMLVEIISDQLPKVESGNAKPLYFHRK
The test can be described thus: Mineralocorticoid Receptor Binding Assay ([3H]-aldosterone). The settings on record: [3H]-aldosterone binding, human MR expressed in Sf9 cells; read-out: MR Ki. The method in brief:
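Receptor source: freeze-thaw lysate of baculovirus-infected Sf9 cells carrying full-length human MR, 20-25 μg protein. Incubation ~16 h at 4 °C with shaking, pH 7.5 buffer containing 30 mM sodium molybdate and 10% glycerol.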

Test [2] deals with T2, glucocorticoid receptor (Homo sapiens, UniProt P04150).
T2 construct: containing 50-200 ug of A549 cell extract and 1.86 nM [^3H]-dexamethasone; host or cells: A549 human lung epithelial cells (sonicated cell extract)
T2 sequence (P04150 1-777): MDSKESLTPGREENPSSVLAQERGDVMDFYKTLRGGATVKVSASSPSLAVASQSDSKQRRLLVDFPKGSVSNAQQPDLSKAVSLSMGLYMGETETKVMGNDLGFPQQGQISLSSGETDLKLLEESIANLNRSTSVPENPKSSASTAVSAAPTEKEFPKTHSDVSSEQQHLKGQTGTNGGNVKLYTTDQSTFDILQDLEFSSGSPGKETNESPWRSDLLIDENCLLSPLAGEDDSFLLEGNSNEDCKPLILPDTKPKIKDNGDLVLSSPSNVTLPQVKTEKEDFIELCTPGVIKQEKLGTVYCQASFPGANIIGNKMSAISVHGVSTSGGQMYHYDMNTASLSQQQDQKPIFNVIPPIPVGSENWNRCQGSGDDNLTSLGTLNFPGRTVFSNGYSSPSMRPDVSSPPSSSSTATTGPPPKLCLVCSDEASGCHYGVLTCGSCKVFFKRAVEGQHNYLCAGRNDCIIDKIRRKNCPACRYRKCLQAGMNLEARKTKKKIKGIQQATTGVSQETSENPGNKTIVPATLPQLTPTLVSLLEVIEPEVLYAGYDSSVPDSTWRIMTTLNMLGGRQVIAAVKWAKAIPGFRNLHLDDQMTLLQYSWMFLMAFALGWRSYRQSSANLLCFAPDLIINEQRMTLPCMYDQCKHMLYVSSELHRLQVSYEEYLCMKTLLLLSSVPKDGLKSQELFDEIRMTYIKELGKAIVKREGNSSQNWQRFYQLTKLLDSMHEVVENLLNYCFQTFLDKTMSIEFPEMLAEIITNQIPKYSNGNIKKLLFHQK
The test can be described thus: Glucocorticoid Receptor Binding Assay ([3H]-dexamethasone, A549 cell extract). Particulars: [3H]-dexamethasone binding, read-out: GR Ki. In outline: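 Displacement of [3H]-dexamethasone (1.86 nM) from glucocorticoid receptor in sonicated A549 lung epithelial cell extracts, 16 h at 4 °C, pH 7.2 molybdate-containing buffer. Bound radioactivity was scintillation-counted after charcoal/dextran stripping of free ligand.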

Each structure is given as a SMILES string. Bounds are passed on as bounds.

Turning to `Oc1cccc(C=C2c3ccccc3CCc3c(Cl)cccc32)c1` [211(b), 3-(1-Chloro-10,11-dihydro-dibenzo[a,d]cyclohepten-5-ylidenemethyl)-phenol], the Ki was under 500 nM in test [1] and under 1000 nM in test [2].

Take `COc1ccc2c(c1)/C(=C\c1cccc(NS(C)(=O)=O)c1)c1ccccc1CC2` [Example 348]: the Ki in test [1] and in test [2] was under 500 nM in each case.

For `C/C(=C1/c2ccccc2COc2cc(C)ccc21)c1cccc(NS(C)(=O)=O)c1` [Example 786], the Ki in test [1] and in test [2] was under 500 nM throughout.

For `CS(=O)(=O)Nc1cccc(C=C2c3ccccc3CCc3c(Cl)cccc32)c1` [Example 205(b), N-[3-(1-Chloro-10,11-dihydro-dibenzo[a,d]cyclohepten-5-ylidenemethyl)-phenyl]-methanesulfonamide], the Ki in test [1] and in test [2] was under 500 nM in each case.

With `Fc1cccc(/C=C2\c3ccc(F)cc3CCc3ncccc32)c1` [Example 579], the Ki in test [1] and in test [2] was under 500 nM throughout.

In the case of `O=c1[nH]c2ccc(/C=C3\c4ccccc4CCc4cc(C(F)(F)F)ccc43)cc2[nH]1` [Example 472], the Ki in test [1] is under 500 nM; in test [2], under 10000 nM.

On to `O=c1[nH]c2ccc(/C=C3\c4ccc(F)cc4CCc4ncccc43)cc2[nH]1` [Example 487, (E)-5-(8-Fluoro-10,11-dihydro-benzo[4,5]cyclohepta[1,2-b]pyridin-5-ylidenemethyl)-1,3-dihydro-benzoimidazol-2-one], for which the Ki in test [1] is under 500 nM; in test [2], under 1000 nM.

Consider `O=S(=O)(Nc1cccc(C=C2c3ccccc3CCc3cc(Cl)ccc32)c1)c1ccccc1` [Example 399], for which the Ki in test [1] was under 500 nM; in test [2], under 10000 nM.

As to `CS(=O)(=O)Nc1cccc(/C=C2/c3ccc(Cl)cc3COc3ccccc32)c1` [Example 726], the Ki in test [1] and in test [2] was under 500 nM throughout.

With `COc1ccc(C=C2c3ccccc3CSc3ccccc32)cn1` [Example 688], the Ki in test [1] and in test [2] was under 500 nM throughout.

For `CS(=O)(=O)Nc1cccc(C=C2c3ccccc3CCc3cc(N)ccc32)c1` [Example 401], the Ki in test [1] and in test [2] was under 500 nM throughout.

On to `C/C(=C1\c2ccc(C)cc2CCc2cc(F)ccc21)c1cccc(NS(C)(=O)=O)c1` [Example 831], for which the Ki in test [1] and in test [2] was under 500 nM throughout.

Take `CS(=O)(=O)Nc1cccc(/C=C2/c3ccccc3COc3c(Cl)cccc32)c1` [Example 662]: the Ki in test [1] and in test [2] was under 500 nM throughout.

Consider `COC(=O)c1ccc(/C=C2/c3ccc(F)cc3CCc3ncccc32)cc1` [Example 587], for which the Ki in test [1] is under 500 nM; in test [2], under 10000 nM.

Take `Oc1cccc(CC2c3ccccc3CCc3c(F)cccc32)c1` (stereo not shown) [Example 186, 3-(1-Fluoro-10,11-dihydro-5H-dibenzo[a,d]cyclohepten-5-ylmethyl)-phenol]: the Ki in test [1] and in test [2] was under 500 nM each time.

As for `CS(=O)(=O)Nc1ccc(C=C2c3ccccc3CCc3cc(Cl)ccc32)cc1` [Example 395], the Ki in test [1] is under 500 nM; in test [2], under 10000 nM.

Take `N#Cc1ccc2c(c1)CCc1ccccc1/C2=C\c1cccc(O)c1` [Example 341]: the Ki in test [1] and in test [2] was under 500 nM in each case.

With `COC(=O)c1ccc2c(c1)CCc1ccccc1/C2=C\c1cccc(NS(C)(=O)=O)c1` [Example 386], the Ki in test [1] and in test [2] was under 500 nM throughout.

`CS(=O)(=O)Nc1ccc2c(c1)CCc1ccccc1/C2=C\c1cccc(O)c1` [Example 338]: the Ki in test [1] was under 500 nM; in test [2], under 1000 nM.

As for `CS(=O)(=O)Nc1cccc(/C=C2/c3ccccc3COc3cc(Cl)ccc32)c1` [Example 664], the Ki in test [1] and in test [2] was under 500 nM each time.

In the case of `Cc1ccc2c(c1)CCc1ccccc1/C2=C/c1cccc(NS(C)(=O)=O)c1` [Example 326], the Ki in test [1] and in test [2] was under 500 nM throughout.

Consider `Cc1ccc2c(c1)CCc1ccccc1/C2=C/c1ccc(NS(C)(=O)=O)cc1` [Example 317], for which the values for the Ki in test [1] and in test [2] were under 500 nM and under 10000 nM, respectively.

On to `Cc1nc2c(s1)/C(=C\c1cccc(NS(C)(=O)=O)c1)c1ccccc1CC2` [483(b), N-[3-(2-Methyl-9,10-dihydro-3-thia-1-aza-benzo[f]azulen-4-ylidenemethyl)-phenyl]-methanesulfonamide], for which the Ki in test [1] and in test [2] was under 500 nM throughout.

Regarding `Nc1nc2ccc(C=C3c4ccccc4CCc4ccccc43)cc2[nH]1` [Example 445], the inhibition constant (Ki) in test [1] was under 500 nM; in test [2] it was under 10000 nM.

With `COc1cccc(C=C2c3ccccc3CNc3ccccc32)c1` [Example 650], the Ki in test [1] and in test [2] was under 500 nM in each case.

Turning to `CS(=O)(=O)Nc1cccc(/C=C2/c3ccc(F)cc3CCc3ncccc32)c1` [Example 510], the Ki in test [1] is under 500 nM; in test [2] it was under 10000 nM.

On to `O=c1[nH]c2ccc(/C=C3\c4ccccc4CCc4cc(F)ccc43)cc2[nH]1` [Example 448], for which the inhibition constant (Ki) was under 500 nM in test [1] and under 10000 nM in test [2].

Turning to `Cc1ccccc1CC1c2ccccc2CCc2ccccc21` [Example 131, 5-(2-Methyl-benzyl)-10,11-dihydro-5H-dibenzo[a,d]cycloheptene], the Ki is under 500 nM in test [1] and under 10000 nM in test [2].

In the case of `OCc1cccc(/C=C2\c3ccccc3CSc3ccccc32)c1` [Example 699], the Ki in test [1] and in test [2] was under 500 nM each time.

For `Cc1ccc2c(c1)OCc1ccccc1/C2=C\c1cccc(NS(C)(=O)=O)c1` [Example 676], the Ki in test [1] and in test [2] was under 500 nM each time.

Regarding `COc1ccc2c(c1)OCc1ccccc1/C2=C/c1cccc(NS(C)(=O)=O)c1` [Example 660], the Ki in test [1] and in test [2] was under 500 nM in each case.

Consider `Oc1cccc(/C=C2\c3ccccc3CCc3ncccc32)c1` [Example 254, (E)-3-(10,11-Dihydro-benzo[4,5]cyclohepta[1,2-b]pyridin-5-ylidenemethyl)-phenol], for which the Ki in test [1] and in test [2] was under 500 nM each time.

In the case of `CS(=O)(=O)Nc1cccc(/C=C2\c3ccccc3CCc3c(N)cccc32)c1` [Example 409], the inhibitory constant (Ki) in test [1] and in test [2] was under 500 nM each time.

Regarding `CS(=O)(=O)Nc1cccc(/C=C2\c3ccccc3COc3ccc(F)cc32)c1` [Example 672], the Ki in test [1] and in test [2] was under 500 nM in each case.

On to `Oc1ccc(C=C2c3ccccc3CCc3cc(Cl)ccc32)cc1` [Example 180, 4-(2-Chloro-10,11-dihydro-dibenzo[a,d]cyclohepten-5-ylidenemethyl)-phenol], for which the Ki in test [1] is under 500 nM; in test [2] it was under 1000 nM.

As usually defined, the Ki is a measure of affinity in units of concentration, obtained from inhibition or displacement.
